Results from paper PMC5814754, “Quantitative, Wide-Spectrum Kinase Profiling in Live Cells for Assessing the Effect of Cellular ATP on Target Engagement” (Cell Chemical Biology, 2018).
Like-named read-outs stand apart in the source and are kept apart here.

Key:
Assay in all cases: NanoBRET single-dose fractional occupancy profiling of kinase/Nluc library in live HEK293 cells (Table S1)
Format in all cases: binding
Set-up in all cases: receptor occupancy: dose or concentration left out as unconfirmed; Occupancy, % Replicate 1 / Occupancy, % Replicate 2: unit of the concentration uncertain
178 full-length kinases [1] = target: 178 full-length kinases (Homo sapiens, UniProt Q92772); details: CDKL2, Nluc N, probe 1 at 0.1 (unit uncertain)
178 full-length kinases [2] = target: 178 full-length kinases (Homo sapiens, UniProt P51955); details: NEK2, Nluc N, probe 5 at 1 (unit uncertain)
178 full-length kinases [3] = target: 178 full-length kinases (Homo sapiens, UniProt P10721); details: KIT, Nluc C, probe 6 at 0.1 (unit uncertain)
178 full-length kinases [4] = target: 178 full-length kinases (Homo sapiens, UniProt Q08881); details: ITK, Nluc N, probe 5 at 0.01 (unit uncertain)
178 full-length kinases [5] = target: 178 full-length kinases (Homo sapiens, UniProt P11309); details: PIM1, Nluc C, probe 5 at 1 (unit uncertain)
178 full-length kinases [6] = target: 178 full-length kinases (Homo sapiens, UniProt Q00535); details: CDK5, Nluc C, probe 5 at 1 (unit uncertain)
178 full-length kinases [7] = target: 178 full-length kinases (Homo sapiens, UniProt Q00532); details: CDKL1, Nluc N, probe 1 at 0.1 (unit uncertain)
178 full-length kinases [8] = target: 178 full-length kinases (Homo sapiens, UniProt P50750); details: CDK9, Nluc N, probe 1 at 0.5 (unit uncertain)
178 full-length kinases [9] = target: 178 full-length kinases (Homo sapiens, UniProt Q5S007); details: LRRK2, Nluc C
178 full-length kinases [10] = target: 178 full-length kinases (Homo sapiens, UniProt P30291); details: WEE1 (NP_003381), Nluc orientation C, probe 5 at 0.05 (unit uncertain)
178 full-length kinases [11] = target: 178 full-length kinases (Homo sapiens, UniProt Q8TD19); details: NEK9, Nluc N, probe 5 at 1 (unit uncertain)
178 full-length kinases [12] = target: 178 full-length kinases (Homo sapiens, UniProt Q8WU08); details: STK32A (NP_001106195), Nluc orientation N, probe 5 at 1 (unit uncertain); replicate 2
178 full-length kinases [13] = target: 178 full-length kinases (Homo sapiens, UniProt Q8IVW4); details: CDKL3, Nluc N, probe 1 at 0.05 (unit uncertain)
178 full-length kinases [14] = target: 178 full-length kinases (Homo sapiens, UniProt Q9Y463); details: DYRK1B, Nluc N, probe 5 at 1 (unit uncertain)
178 full-length kinases [15] = target: 178 full-length kinases (Homo sapiens, UniProt Q13882); details: PTK6, Nluc C, probe 6 at 0.5 (unit uncertain)
178 full-length kinases [16] = target: 178 full-length kinases (Homo sapiens, UniProt Q9Y2K2); details: SIK3 (NP_079440), Nluc orientation N, probe 6 at 1 (unit uncertain)
178 full-length kinases [17] = target: 178 full-length kinases (Homo sapiens, UniProt P19784); details: CSNK2A2, Nluc C, probe 5 at 1 (unit uncertain)
178 full-length kinases [18] = target: 178 full-length kinases (Homo sapiens, UniProt P17612); details: PRKACA, Nluc C, probe 5 at 1 (unit uncertain)
178 full-length kinases [19] = target: 178 full-length kinases (Homo sapiens, UniProt Q96PY6); details: NEK1, Nluc N, probe 5 at 1 (unit uncertain)

Sequence of 178 full-length kinases (Homo sapiens, UniProt P50750) (P50750 whole entry): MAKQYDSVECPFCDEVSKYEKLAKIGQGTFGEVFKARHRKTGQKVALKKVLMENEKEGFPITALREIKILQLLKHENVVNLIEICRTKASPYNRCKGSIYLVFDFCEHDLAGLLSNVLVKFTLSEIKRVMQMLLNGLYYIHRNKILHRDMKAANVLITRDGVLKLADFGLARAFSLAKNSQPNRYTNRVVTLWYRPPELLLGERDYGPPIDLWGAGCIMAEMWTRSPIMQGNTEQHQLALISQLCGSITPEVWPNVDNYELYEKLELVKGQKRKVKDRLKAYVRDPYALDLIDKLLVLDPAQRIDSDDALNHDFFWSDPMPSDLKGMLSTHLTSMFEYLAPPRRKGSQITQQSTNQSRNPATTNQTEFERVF
Sequence of 178 full-length kinases (Homo sapiens, UniProt P19784) (P19784 whole entry): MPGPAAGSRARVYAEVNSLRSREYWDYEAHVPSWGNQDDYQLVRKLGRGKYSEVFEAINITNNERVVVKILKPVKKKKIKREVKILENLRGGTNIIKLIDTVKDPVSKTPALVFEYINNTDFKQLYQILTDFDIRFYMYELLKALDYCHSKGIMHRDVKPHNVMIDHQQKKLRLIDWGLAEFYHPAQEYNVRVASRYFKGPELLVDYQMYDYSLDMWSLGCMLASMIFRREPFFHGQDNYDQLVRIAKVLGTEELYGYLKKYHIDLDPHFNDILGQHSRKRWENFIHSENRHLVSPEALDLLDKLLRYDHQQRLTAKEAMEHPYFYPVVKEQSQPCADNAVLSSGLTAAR
Sequence of 178 full-length kinases (Homo sapiens, UniProt Q9Y463) (Q9Y463 whole entry): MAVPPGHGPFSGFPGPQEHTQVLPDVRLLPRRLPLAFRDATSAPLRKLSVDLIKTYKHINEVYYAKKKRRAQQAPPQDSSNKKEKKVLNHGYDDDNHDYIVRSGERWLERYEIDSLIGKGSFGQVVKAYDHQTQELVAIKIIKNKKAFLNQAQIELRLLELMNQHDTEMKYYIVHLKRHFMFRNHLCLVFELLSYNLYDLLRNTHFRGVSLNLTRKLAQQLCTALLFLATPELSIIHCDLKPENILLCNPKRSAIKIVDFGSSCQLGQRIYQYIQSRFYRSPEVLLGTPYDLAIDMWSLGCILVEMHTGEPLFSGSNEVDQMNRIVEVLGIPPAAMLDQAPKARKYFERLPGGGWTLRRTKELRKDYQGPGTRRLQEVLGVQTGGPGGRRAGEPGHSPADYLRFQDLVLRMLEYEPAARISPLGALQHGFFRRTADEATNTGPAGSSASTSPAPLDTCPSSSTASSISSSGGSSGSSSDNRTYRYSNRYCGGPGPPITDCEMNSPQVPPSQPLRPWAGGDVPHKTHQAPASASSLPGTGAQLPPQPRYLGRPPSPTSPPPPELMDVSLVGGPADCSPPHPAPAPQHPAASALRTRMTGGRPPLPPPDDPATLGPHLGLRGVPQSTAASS
Sequence of 178 full-length kinases (Homo sapiens, UniProt Q8IVW4) (Q8IVW4 whole entry): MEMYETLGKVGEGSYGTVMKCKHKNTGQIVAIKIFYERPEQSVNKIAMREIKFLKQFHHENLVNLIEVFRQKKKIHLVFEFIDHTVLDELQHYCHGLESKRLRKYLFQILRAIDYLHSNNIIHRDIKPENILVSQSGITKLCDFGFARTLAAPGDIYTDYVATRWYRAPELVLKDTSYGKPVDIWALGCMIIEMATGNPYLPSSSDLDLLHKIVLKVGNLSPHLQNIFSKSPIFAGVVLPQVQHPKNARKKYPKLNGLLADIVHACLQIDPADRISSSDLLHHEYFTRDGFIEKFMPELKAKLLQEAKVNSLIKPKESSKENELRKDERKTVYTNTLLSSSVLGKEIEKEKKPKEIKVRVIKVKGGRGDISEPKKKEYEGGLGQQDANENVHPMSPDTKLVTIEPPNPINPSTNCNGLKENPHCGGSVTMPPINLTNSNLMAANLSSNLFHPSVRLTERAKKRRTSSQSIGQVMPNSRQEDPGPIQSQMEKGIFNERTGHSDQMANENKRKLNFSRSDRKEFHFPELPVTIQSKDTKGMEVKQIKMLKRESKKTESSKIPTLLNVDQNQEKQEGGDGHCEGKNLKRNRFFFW
Sequence of 178 full-length kinases (Homo sapiens, UniProt Q00535) (Q00535 whole entry): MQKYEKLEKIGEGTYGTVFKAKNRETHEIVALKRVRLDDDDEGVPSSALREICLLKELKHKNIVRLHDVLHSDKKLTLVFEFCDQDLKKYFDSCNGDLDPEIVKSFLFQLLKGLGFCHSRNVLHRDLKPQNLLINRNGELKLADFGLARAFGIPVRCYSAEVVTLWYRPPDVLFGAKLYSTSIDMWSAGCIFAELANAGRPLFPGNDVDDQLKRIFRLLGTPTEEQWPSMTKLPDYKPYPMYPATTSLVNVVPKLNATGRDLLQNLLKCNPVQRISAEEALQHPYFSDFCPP
Sequence of 178 full-length kinases (Homo sapiens, UniProt Q5S007) (Q5S007 whole entry): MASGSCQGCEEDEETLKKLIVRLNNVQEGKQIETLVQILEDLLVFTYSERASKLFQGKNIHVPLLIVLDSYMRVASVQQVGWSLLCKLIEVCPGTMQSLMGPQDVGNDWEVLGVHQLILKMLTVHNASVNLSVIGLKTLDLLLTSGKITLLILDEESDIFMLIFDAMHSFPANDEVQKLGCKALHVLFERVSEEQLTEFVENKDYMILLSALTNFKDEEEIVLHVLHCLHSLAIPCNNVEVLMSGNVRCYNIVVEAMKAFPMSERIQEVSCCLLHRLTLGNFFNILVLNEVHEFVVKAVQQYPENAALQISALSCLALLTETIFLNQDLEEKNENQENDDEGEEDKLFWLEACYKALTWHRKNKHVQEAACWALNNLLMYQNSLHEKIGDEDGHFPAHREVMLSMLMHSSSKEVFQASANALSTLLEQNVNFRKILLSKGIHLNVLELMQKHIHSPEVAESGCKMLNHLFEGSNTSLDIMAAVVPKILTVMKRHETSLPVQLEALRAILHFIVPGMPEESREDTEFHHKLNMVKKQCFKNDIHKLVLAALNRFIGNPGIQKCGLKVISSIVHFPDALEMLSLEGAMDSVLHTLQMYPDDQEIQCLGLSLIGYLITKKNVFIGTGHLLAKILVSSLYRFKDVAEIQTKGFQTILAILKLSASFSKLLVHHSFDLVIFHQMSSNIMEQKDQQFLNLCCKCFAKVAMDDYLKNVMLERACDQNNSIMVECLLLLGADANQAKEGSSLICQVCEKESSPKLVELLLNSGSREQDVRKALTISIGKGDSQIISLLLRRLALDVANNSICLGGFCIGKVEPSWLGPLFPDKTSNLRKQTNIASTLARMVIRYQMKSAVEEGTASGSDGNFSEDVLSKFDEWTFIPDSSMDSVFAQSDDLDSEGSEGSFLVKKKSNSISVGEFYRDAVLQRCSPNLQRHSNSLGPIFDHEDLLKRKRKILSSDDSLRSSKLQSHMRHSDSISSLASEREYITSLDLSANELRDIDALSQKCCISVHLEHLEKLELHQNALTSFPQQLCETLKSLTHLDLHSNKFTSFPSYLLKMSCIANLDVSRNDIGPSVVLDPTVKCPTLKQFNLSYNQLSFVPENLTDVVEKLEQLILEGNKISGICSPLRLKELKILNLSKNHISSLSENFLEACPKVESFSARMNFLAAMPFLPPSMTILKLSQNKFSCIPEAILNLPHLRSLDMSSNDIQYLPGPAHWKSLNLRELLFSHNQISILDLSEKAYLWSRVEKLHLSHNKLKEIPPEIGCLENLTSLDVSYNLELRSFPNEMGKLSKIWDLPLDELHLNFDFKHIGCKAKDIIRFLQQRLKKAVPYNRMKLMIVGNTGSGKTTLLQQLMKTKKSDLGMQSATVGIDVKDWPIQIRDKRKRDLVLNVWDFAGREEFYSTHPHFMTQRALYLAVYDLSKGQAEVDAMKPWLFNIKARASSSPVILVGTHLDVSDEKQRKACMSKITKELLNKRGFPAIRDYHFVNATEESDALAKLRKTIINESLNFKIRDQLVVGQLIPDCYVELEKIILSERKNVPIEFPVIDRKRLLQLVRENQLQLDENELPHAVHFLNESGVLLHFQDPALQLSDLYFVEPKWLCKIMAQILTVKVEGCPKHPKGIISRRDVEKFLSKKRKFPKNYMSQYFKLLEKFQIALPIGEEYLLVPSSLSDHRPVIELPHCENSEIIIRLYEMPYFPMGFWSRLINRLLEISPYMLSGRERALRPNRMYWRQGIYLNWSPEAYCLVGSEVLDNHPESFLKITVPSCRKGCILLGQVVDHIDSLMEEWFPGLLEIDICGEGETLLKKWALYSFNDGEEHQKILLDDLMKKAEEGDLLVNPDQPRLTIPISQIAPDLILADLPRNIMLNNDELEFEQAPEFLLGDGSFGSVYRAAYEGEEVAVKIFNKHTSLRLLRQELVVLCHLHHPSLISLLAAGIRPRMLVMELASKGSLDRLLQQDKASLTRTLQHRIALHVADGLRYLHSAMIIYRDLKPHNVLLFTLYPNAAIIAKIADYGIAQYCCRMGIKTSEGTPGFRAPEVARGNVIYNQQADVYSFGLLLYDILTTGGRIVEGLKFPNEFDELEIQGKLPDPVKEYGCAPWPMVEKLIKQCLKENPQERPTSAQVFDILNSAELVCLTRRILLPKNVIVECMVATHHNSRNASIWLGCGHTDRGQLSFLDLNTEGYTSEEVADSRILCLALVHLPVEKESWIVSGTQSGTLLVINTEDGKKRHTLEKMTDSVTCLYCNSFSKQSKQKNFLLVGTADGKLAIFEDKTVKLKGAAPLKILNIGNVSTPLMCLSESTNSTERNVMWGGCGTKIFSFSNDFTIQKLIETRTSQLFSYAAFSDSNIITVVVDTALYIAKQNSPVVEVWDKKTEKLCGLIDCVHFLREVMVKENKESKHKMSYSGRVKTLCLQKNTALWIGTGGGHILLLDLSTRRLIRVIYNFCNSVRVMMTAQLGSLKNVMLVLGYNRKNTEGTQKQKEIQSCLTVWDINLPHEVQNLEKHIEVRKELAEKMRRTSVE
Sequence of 178 full-length kinases (Homo sapiens, UniProt P11309) (P11309 whole entry): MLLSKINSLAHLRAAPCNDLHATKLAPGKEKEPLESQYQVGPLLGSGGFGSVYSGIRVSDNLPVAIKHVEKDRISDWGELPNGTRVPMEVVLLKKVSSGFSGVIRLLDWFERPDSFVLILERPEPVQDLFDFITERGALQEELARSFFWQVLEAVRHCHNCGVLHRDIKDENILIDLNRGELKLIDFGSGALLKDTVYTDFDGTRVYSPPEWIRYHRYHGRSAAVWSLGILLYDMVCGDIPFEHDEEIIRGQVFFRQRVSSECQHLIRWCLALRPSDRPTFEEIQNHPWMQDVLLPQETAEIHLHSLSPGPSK

C[C@@H](Oc1cc(-c2cnn(C3CCNCC3)c2)cnc1N)c1c(Cl)ccc(F)c1Cl [Crizotinib]
14%: receptor occupancy (178 full-length kinases [9]; read-out: Occupancy, % Replicate 1)
No Binding: Occupancy, % Replicate 1 (178 full-length kinases [1]) | Occupancy, % Replicate 2 (178 full-length kinases [1]) | Occupancy, % Replicate 1 (178 full-length kinases [2]) | Occupancy, % Replicate 1 (178 full-length kinases [3]) | Occupancy, % Replicate 2 (178 full-length kinases [3]) | Occupancy, % Replicate 1 (178 full-length kinases [4]) | Occupancy, % Replicate 1 (178 full-length kinases [5]) | Occupancy, % Replicate 1 (178 full-length kinases [6]) | Occupancy, % Replicate 2 (178 full-length kinases [6]) | Occupancy, % Replicate 1 (178 full-length kinases [7]) | Occupancy, % Replicate 2 (178 full-length kinases [7]) | Occupancy, % Replicate 1 (178 full-length kinases [8]) | Occupancy, % Replicate 2 (178 full-length kinases [8]) | Occupancy, % Replicate 1 (178 full-length kinases [10]; replicate 1) | Occupancy, % Replicate 2 (178 full-length kinases [10]; replicate 2) | Occupancy, % Replicate 1 (178 full-length kinases [11]) | Occupancy, % Replicate 2 (178 full-length kinases [12]) | Occupancy, % Replicate 1 (178 full-length kinases [13]) | Occupancy, % Replicate 2 (178 full-length kinases [13]) | Occupancy, % Replicate 1 (178 full-length kinases [14]) | Occupancy, % Replicate 2 (178 full-length kinases [14]) | Occupancy, % Replicate 2 (178 full-length kinases [15]) | Occupancy, % Replicate 1 (178 full-length kinases [16]; replicate 1) | Occupancy, % Replicate 2 (178 full-length kinases [16]; replicate 2) | Occupancy, % Replicate 1 (178 full-length kinases [17]) | Occupancy, % Replicate 2 (178 full-length kinases [17]) | Occupancy, % Replicate 1 (178 full-length kinases [18]) | Occupancy, % Replicate 2 (178 full-length kinases [18]) | Occupancy, % Replicate 2 (178 full-length kinases [19])
31%: receptor occupancy (178 full-length kinases [9]; read-out: Occupancy, % Replicate 2)
